# In patent EP3046573B1, “AMYLIN ANALOGUES” (Zealand Pharma A/S, priority 2013, dated 2015):
# Numbered stars: 1 amine (or outer) side, 2 acyl side, 3 side chain; on linkers, the order of the positions; unused ones are H or OH. Bridge positions count the residues as written; N and C are the ends. Square brackets hold non-standard residues; d marks the D form. Peptide text beside a SMILES is read from it. * marks the point of attachment. C20 diacid = O=C(O)CCCCCCCCCCCCCCCCCCC(=O)*; γGlu = O=C(O)[C@H](CCC(=O)[*:2])N[*:1]; Hyp = O=C(O)[C@@H]1C[C@@H](O)CN1; NMeI = CC[C@H](C)[C@H](NC)C(=O)O; Sar = CNCC(=O)O
# Tests used:
# [1] = target: T1, human calcitonin receptor (hCTR2) (Homo sapiens, UniProt P30988); assay: hCTR2 assay: induction of cAMP (AlphaScreen cAMP Assay kit) in COS7 cells expressing hCTR2; format: cell-based
# T1 construct: expressed in transfected cells
# T1 sequence (P30988 25-474): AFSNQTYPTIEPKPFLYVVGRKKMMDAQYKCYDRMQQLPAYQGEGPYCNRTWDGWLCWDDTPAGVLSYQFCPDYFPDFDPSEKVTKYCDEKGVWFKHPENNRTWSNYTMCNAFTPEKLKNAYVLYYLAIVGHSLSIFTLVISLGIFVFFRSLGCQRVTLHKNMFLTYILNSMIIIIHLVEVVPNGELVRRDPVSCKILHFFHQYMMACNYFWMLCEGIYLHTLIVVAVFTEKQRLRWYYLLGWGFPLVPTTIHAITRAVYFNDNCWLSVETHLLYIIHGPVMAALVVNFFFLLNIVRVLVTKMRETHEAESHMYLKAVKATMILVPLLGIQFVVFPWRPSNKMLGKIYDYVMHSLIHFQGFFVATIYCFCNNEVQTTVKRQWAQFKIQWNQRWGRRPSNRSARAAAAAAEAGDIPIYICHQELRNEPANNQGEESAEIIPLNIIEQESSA
# Summary of the method: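 Stable hCTR2 clone in RAMP-naive COS7 cells; peptides titrated in Tyrode buffer (pH 7.4) with 100 µM IBMX, 0.1% casein, 15 min at 37° C. cAMP read by AlphaScreen after lysis; EC50 and efficacy relative to pramlintide from 4PL fit.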
# Sprague Dawley (SD) rats = assay: Acute food intake and body weight in normal Sprague Dawley rats; format: in vivo; details: vehicle-corrected, dose 30 nmol/kg sc, once; for Body weight loss (%) after 96 hours: mean ± SEM, n = 8
# Summary of the method: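 Normal male-unspecified SD rats, n = 8 per group, given a single s.c. peptide dose of 30 nmol/kg just before dark phase, with vehicle and positive control groups. Food intake recorded at 0, 4, 7, 10, 24, 48, 72 and 96 h; body weight daily; means ± SEM.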
# [2] = Solubility assessment (turbidity absorbance at 325 nm); format: physicochemical; details: stock 2 mg/ml diluted 1:1, ambient temperature (typically 25°C), n=1; for Solubility, Acetate buffer pH 4: 100 mM acetate buffer pH 4.0; for Solubility, Acetate buffer pH 5: 100 mM acetate buffer pH 5.0; for Solubility, Histidine buffer pH 6: 100 mM histidine buffer pH 6.0; for Solubility, Histidine buffer pH 7: 100 mM histidine buffer pH 7.0; for Solubility, Phosphate buffer pH 6: 100 mM phosphate buffer pH 6.0; for Solubility, Phosphate buffer pH 7: 100 mM phosphate buffer pH 7.0; for Solubility, Phosphate buffer pH 7.5: 100 mM phosphate buffer pH7.5
# Summary of the method: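 Peptide stock (2 mg/ml) in water acidified to pH 2.5 with HCl was diluted 1:1 into 100 mM acetate (pH 4.0, 5.0), histidine (pH 6.0, 7.0) or phosphate (pH 6.0, 7.0, 7.5) buffer. A280 and A325 were read at about 25°C, n=1. A325 ≤ 0.02 meant solubility ≥ 1 mg/ml.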
SMILES,EC50 [1],Food intake inhibition (%) after 48 hours (Sprague Dawley (SD) rats),Body weight loss (%) after 96 hours (Sprague Dawley (SD) rats),"Solubility, Acetate buffer pH 4 [2]","Solubility, Acetate buffer pH 5 [2]","Solubility, Histidine buffer pH 6 [2]","Solubility, Histidine buffer pH 7 [2]","Solubility, Phosphate buffer pH 6 [2]","Solubility, Phosphate buffer pH 7 [2]","Solubility, Phosphate buffer pH 7.5 [2]"
"CC[C@H](C)[C@@H](C(=O)N[C@@H](CC(C)C)C(=O)N[C@@H](CO)C(=O)N[C@@H](CO)C(=O)N[C@H](C(=O)N[C@@H](CC(N)=O)C(=O)N[C@H](C(=O)NCC(=O)N[C@@H](CO)C(=O)N[C@@H](CC(N)=O)C(=O)N[C@H](C(=O)N1CCC[C@H]1C(N)=O)[C@@H](C)O)C(C)C)[C@@H](C)O)N(C)C(=O)[C@H](C)NC(=O)CN(C)C(=O)[C@H](Cc1ccccc1)NC(=O)[C@H](CC(N)=O)NC(=O)[C@H](CC(N)=O)NC(=O)[C@H](CO)NC(=O)[C@H](CO)NC(=O)[C@H](CCCNC(=N)N)NC(=O)[C@H](Cc1c[nH]cn1)NC(=O)[C@H](CC(C)C)NC(=O)[C@H](Cc1ccccc1)NC(=O)[C@H](CCC(=O)O)NC(=O)[C@H](C)NC(=O)[C@H](CC(C)C)NC(=O)[C@H](CCCNC(=N)N)NC(=O)[C@H](CCC(N)=O)NC(=O)[C@@H](NC(=O)[C@H](C)NC(=O)[C@@H]1CSSC[C@H](NC(=O)[C@H](CCCCN)NC(=O)[C@H](CCCCN)NC(=O)CC[C@H](NC(=O)CCCCCCCCCCCCCCCCCCC(=O)O)C(=O)O)C(=O)N[C@@H](CC(N)=O)C(=O)N[C@@H]([C@@H](C)O)C(=O)N[C@@H](C)C(=O)N[C@@H]([C@@H](C)O)C(=O)N1)[C@@H](C)O [Compound 87, [19CD]-isoGlu-KKC()NTATC()ATQRLAEFLHRSSNNF-Gly(Me)-A-Ile(Me)-LSSTNVGSNTP-NH2] ({C20 diacid-γGlu}-KKCNTATCATQRLAEFLHRSSNNF[Sar]A[NMeI]LSSTNVGSNTP-NH2; disulfide 3-8)",46 pM,98%,10 ± 1.2%,SS (SS indicates solubility ≥ 1mg/ml),SS (SS indicates solubility ≥ 1mg/ml),SS (SS indicates solubility ≥ 1mg/ml),SS (SS indicates solubility ≥ 1mg/ml),SS (SS indicates solubility ≥ 1mg/ml),SS (SS indicates solubility ≥ 1mg/ml),SS (SS indicates solubility ≥ 1mg/ml)
"CC[C@H](C)[C@@H](C(=O)N[C@@H](CC(C)C)C(=O)N[C@@H](CO)C(=O)N[C@@H](CO)C(=O)N[C@H](C(=O)N[C@@H](CC(N)=O)C(=O)N[C@H](C(=O)NCC(=O)N[C@@H](CO)C(=O)N[C@@H](CC(N)=O)C(=O)N[C@H](C(=O)N1C[C@H](O)C[C@H]1C(N)=O)[C@@H](C)O)C(C)C)[C@@H](C)O)N(C)C(=O)[C@H](C)NC(=O)CN(C)C(=O)[C@H](Cc1ccccc1)NC(=O)[C@H](CC(N)=O)NC(=O)[C@H](CC(N)=O)NC(=O)[C@H](CO)NC(=O)[C@H](CO)NC(=O)[C@H](CCCNC(=N)N)NC(=O)[C@H](Cc1c[nH]cn1)NC(=O)[C@H](CC(C)C)NC(=O)[C@H](Cc1ccccc1)NC(=O)[C@H](CCC(=O)O)NC(=O)[C@H](C)NC(=O)[C@H](CC(C)C)NC(=O)[C@H](CCCNC(=N)N)NC(=O)[C@H](CCC(N)=O)NC(=O)[C@@H](NC(=O)[C@H](C)NC(=O)[C@@H]1CSSC[C@H](NC(=O)[C@H](CCCNC(=N)N)NC(=O)CC[C@H](NC(=O)CCCCCCCCCCCCCCCCCCC(=O)O)C(=O)O)C(=O)N[C@@H](CC(N)=O)C(=O)N[C@@H]([C@@H](C)O)C(=O)N[C@@H](C)C(=O)N[C@@H]([C@@H](C)O)C(=O)N1)[C@@H](C)O [Compound 105, [19CD]-isoGlu-RC()NTATC()ATQRLAEFLHRSSNNF-Gly(Me)-A-Ile(Me)-LSSTNVGSNT-Hyp-NH2] ({C20 diacid-γGlu}-RCNTATCATQRLAEFLHRSSNNF[Sar]A[NMeI]LSSTNVGSNT[Hyp]-NH2; disulfide 2-7)",83 pM,,7 ± 2.4%,SS (SS indicates solubility ≥ 1mg/ml),SS (SS indicates solubility ≥ 1mg/ml),SS (SS indicates solubility ≥ 1mg/ml),SS (SS indicates solubility ≥ 1mg/ml),SS (SS indicates solubility ≥ 1mg/ml),SS (SS indicates solubility ≥ 1mg/ml),SS (SS indicates solubility ≥ 1mg/ml)
"CC[C@H](C)[C@@H](C(=O)N[C@@H](CC(C)C)C(=O)N[C@H](CO)C(=O)N[C@@H](CO)C(=O)N[C@H](C(=O)N[C@@H](CC(N)=O)C(=O)N[C@H](C(=O)NCC(=O)N[C@@H](CO)C(=O)N[C@@H](CC(N)=O)C(=O)N[C@H](C(=O)N1CCC[C@H]1C(N)=O)[C@@H](C)O)C(C)C)[C@@H](C)O)N(C)C(=O)[C@H](C)NC(=O)CN(C)C(=O)[C@@H](Cc1ccccc1)NC(=O)[C@H](CC(N)=O)NC(=O)[C@H](CC(N)=O)NC(=O)[C@H](CO)NC(=O)[C@H](CO)NC(=O)[C@H](CCCNC(=N)N)NC(=O)[C@H](Cc1c[nH]cn1)NC(=O)[C@H](CC(C)C)NC(=O)[C@H](Cc1ccccc1)NC(=O)[C@H](CCC(=O)O)NC(=O)[C@H](C)NC(=O)[C@H](CC(C)C)NC(=O)[C@H](CCCNC(=N)N)NC(=O)[C@H](CCC(N)=O)NC(=O)[C@@H](NC(=O)[C@H](C)NC(=O)[C@@H]1CSSC[C@H](NC(=O)[C@H](CCCCN)NC(=O)CC[C@H](NC(=O)CCCCCCCCCCCCCCCCCCC(=O)O)C(=O)O)C(=O)N[C@@H](CC(N)=O)C(=O)N[C@@H]([C@@H](C)O)C(=O)N[C@@H](C)C(=O)N[C@@H]([C@@H](C)O)C(=O)N1)[C@@H](C)O [Compound 72, [19CD]-isoGlu-KC()NTATC()ATQRLAEFLHRSSNN-DPhe-Gly(Me)-A-Ile(Me)-L-DSer-STNVGSNTP] ({C20 diacid-γGlu}-KCNTATCATQRLAEFLHRSSNN[dF][Sar]A[NMeI]L[dS]STNVGSNTP-NH2; disulfide 2-7)",71 pM,99%,12 ± 1.2%,SS (SS indicates solubility ≥ 1mg/ml),SS (SS indicates solubility ≥ 1mg/ml),SS (SS indicates solubility ≥ 1mg/ml),SS (SS indicates solubility ≥ 1mg/ml),SS (SS indicates solubility ≥ 1mg/ml),SS (SS indicates solubility ≥ 1mg/ml),SS (SS indicates solubility ≥ 1mg/ml)
